Assay results: patent publication US20220290122A1 (Whitehead Institute for Biomedical Research, priority 2019, published 2022)

Test system: MCART1-null Jurkat cells
Assay: Cell proliferation assay with metabolite supplementation (metabolite rescue)
Type: cell-based, human
Conditions: RPMI media; 1 mM pyruvate and 100 μg/ml uridine, 1 mM formate or 0.1 mM/16 μM hypoxanthine/thymidine added at the beginning of the culture period; FIG. 5M
Method: Unless otherwise indicated, Jurkat and K562 cells were cultured in RPMI (Life Technologies) supplemented with 10% Inactivated Fetal Calf Serum (IFS, Sigma and Gemini), 2 mM glutamine, and penicillin/streptomycin. HeLa, HEK-293T, and Ben cells were cultured in DMEM (Life Technologies) supplemented with 10% IFS and penicillin/streptomycin. […] To compare proliferation of cells in glucose to proliferation in galactose, RPMI without glucose (Life Technologies) was supplemented with dialyzed IFS and either 10 mM glucose or galactose. All cell lines were maintained at 37° C. and 5% CO2.
10,000 cells per well were seeded into 96-well plates in triplicate. Cell titer glo reagent (Promega) was added to one plate 1 hour after seeding and luminescence was measured, while a second plate was read-out 4 days after seeding. Number of doublings in 4 days was determined by calculating the loge fold-change in signal between day 0 and 4. For cell counting experiments, 100,000 cells/ml were seeded in a 6-well plate in triplicates and counted immediately after seeding and from then on every 24 hours for 5 sequential days.

O=CO [formate]
rescue of the proliferation defect of MCART1-null cells by addition of metabolites to the media: not rescued
